Experimental findings from US8357798B2, “Process for preparing N-alkylated hydroxypyrimidinone compounds” (Merck Sharp & Dohme Corp., priority 2004, dated 2013) are described below.

Counter-ions that a name gives are not always drawn.

The nature of series [1]: hygroscopicity (vapor sorption analysis). In kind it is physicochemical. The settings on record: for weight when equilibrated back down to 5% RH: 5% RH after 95% RH; for weight increase when equilibrated at 95% RH: 95% RH at 25° C. As to the method: Hygroscopicity data was obtained on a VTI Symmetrical Vapor Sorption Analyzer Model SGA-1. Data was collected at room temperature from 5-95% relative humidity and back, 5% relative humidity change per step. Equilibrium conditions were 0.01 weight percent change in 5 minutes with a maximum equilibration time of 180 minutes.

Series [2] in a line: solubility in water. In kind it is physicochemical.
The test system of series [3] is acute HIV infection of T-lymphoid cells. Description: assay for the inhibition of acute HIV infection of T-lymphoid cells. In kind it is cell-based. The settings on record: in accordance with Vacca et al., PNAS 1994, 91: 4096-4100.
Series [4] concerns the target HIV integrase (Human immunodeficiency virus type 1 group M subtype B, UniProt P04585). Kind of series: integrase inhibition assay in which strand transfer is catalyzed by recombinant integrase. In kind it is biochemical. The settings on record: assay of Example 193 of WO 02/30930. From the text: Compound A is an inhibitor of HIV integrase. […] The strand transfer assay is described in Example 193 of WO 02/30930.

[5] abbreviates: listed as Form 1 Crystalline Potassium Salt of Compound A.

Regarding `Cc1nnc(C(=O)NC(C)(C)c2nc(C(=O)NCc3ccc(F)cc3)c(O)c(=O)n2C)o1` [listing 1 of 2 here], in series [1] (setting [5]), the “weight when equilibrated back down to 5% RH” value is reported as “returned back to approximately its dry weight” and the “weight increase when equilibrated at 95% RH” value was found to be 1.8%. For the same compound, the “phase by XRPD after the hygroscopicity experiment” value in series [1] (XRPD after 5-95% RH cycle) is on record as “had not changed phases”.
For the compound `Cc1nnc(C(=O)NC(C)(C)c2nc(C(=O)NCc3ccc(F)cc3)c(O)c(=O)n2C)o1` [listing 2 of 2 here], in series [1], the “weight when equilibrated back down to 5% RH” value is given as “returned to its dry weight” and the “weight increase when equilibrated at 95% RH” value worked out at 1%.
For the compound `Cc1nnc(C(=O)NC(C)(C)c2nc(C(=O)NCc3ccc(F)cc3)c(O)c(=O)n2C)o1` [Compound A, N-(4-fluorobenzyl)-5-hydroxy-1-methyl-2-(1-methyl-1-{[(5-methyl-1,3,4-oxadiazol-2-yl)carbonyl]amino}ethyl)-6-oxo-1,6-dihydropyrimidine-4-carboxamide], the solubility in water entry in series [2] is “limited”. In series [3], the “inhibition of acute HIV infection of T-lymphoid cells” value is given as “active”. Also, the “inhibition of integrase strand transfer” value in series [4] is “potent inhibitor”.
For `Cc1nnc(C(=O)NC(C)(C)c2nc(C(=O)NCc3ccc(F)cc3)c(O)c(=O)n2C)o1` [potassium salt of Compound A], the solubility in water entry in series [2] is “comparatively quite soluble”. Also, in series [2] (relative to Compound A free base), the “solubility in water compared to the free base” value was “significantly more soluble”.
